Consider 3 molecules from US20260083126A1, “ANTIMICROBIAL COMPOSITIONS” (AHV International B.V., priority 2022, published 2026).

For test [1], the system named is Staphylococcus aureus LUH14616. The experiment in a line: Resistance development on repeated exposure (19 passages). It is filed as cell-based. As for the experimental part:
Experimental design. Potential resistance to AM-8 was assessed as described by Habets and Brockhurst (2012) (Therapeutic antimicrobial peptides may compromise natural immunity. Biol Lett 8:416-418). Briefly, log phase bacteria (S. aureus LUH 14616) were diluted in RPMI-mod to a concentration of 2×10^6 CFU/ml. Next, 50 μl of this bacterial suspension were mixed with 50 μl of a range of dilutions of AM-8 or—as comparator-rifampicin in v-bottom 96-wells plates. Thereafter, the plates were covered with a plastic seal and incubated for 24 hrs at 37° C. in a shaking incubator (200 rpm). The plates were then centrifuged for 5 min at 2,000 rpm and the growth inhibition was determined. To start the resistance development testing, 100 μl of a mid-log bacterial suspension containing 2×10^6 CFU/ml were mixed with 150 μl of RPMI-mod and 5 μl of this diluted bacterial suspension were applied to v-bottom wells containing a dilution range of AM-8 or antibiotics (various concentrations below and above MIC) in RPMI-mod (RPMI 1640 modified with 20 mM Hepes and L-glutamine and without sodium bicarbonate (Sigma-Aldrich); further referred to as RPMI-mod). After 24 hrs at 37° C. in a shaking incubator (200 rpm) the growth inhibition was determined. 100 μl of the bacterial suspension from the 0.5×MIC wells were mixed with 150 μl of RPMI-mod and 5 μl of the diluted bacterial suspension were used to inoculate a new 96-wells plate containing a dilution series of AM-8 or rifampicin, and these mixtures were then incubated as described above. If resistance developed, the concentration range of AM-8 and/or antibiotic was adjusted accordingly. This was repeated 19 times. Results are expressed as the fold-increase in MIC compared to the MIC at the start of the experiment.

For test [2], the system named is Pseudomonas aeruginosa ATCC 27853 biofilm. The experiment in a line: MBEC assay (48 h biofilm, CFU log reduction). It counts as cell-based. Conditions: 20 h treatment, 0.125-1 mM tested. The protocol: (§1) For the MBEC assay (method 1.3) the solutions need to be diluted to a final concentration of 2 mM in 0.9% saline solution and then further diluted to 1 mM, 0.5 mM, 0.25 mM and 0.125 mM in saline. Those dilutions were added as treatment to the 96 well plates with the grown biofilm (see method 3) (0.5 mL needed for one strain). The dilution must stay transparent.
(§2) Frozen aliquots of Staphylococcus epidermis ATCC 35984 and Pseudomonas aeruginosa ATCC 27853 were used to inoculate 20 mL of Tryptic Soy Broth (TSB) in a 100 mL Erlenmeyer flask at 37° C. and 150 rpm and incubated overnight (Infors). The OD600 of the overnight culture was measured with a spectrophotometer (Evolution™ 201/220 UV-Visible Spectrophotometer, Thermo Fisher Scientific) and diluted to an ( ) 600 of 0.2, which resembles 10^8 CFU/mL. The cell suspension of OD600=0.2 was seeded into a U-bottom-shaped 96 well plates by pipetting 100 μL per well in column 1-11, column 12 was filled with 100 μL medium as sterility control. The 96 well plates were sealed with adhesive polyethylene film for sealing microplates and incubated for 48 h at 37° C. at static conditions. After the biofilm growth phase, 100 μL of treatment solutions (method 1) were added to the vials resulting in treatment concentrations of 1 mM, 0.5 mM, 0.25 mM and 0.125 mM and with the respective concentration of Tween 80 and DMSO each at 0.63%, 0.32%, 0.16% and 0.08%. The same concentration was applied to four different wells of the same bacterial strain, resulting in four replicates for each concentration and strain. The treatment was incubated for 20 h at 37° C. at static conditions. After the treatment the supernatant was carefully removed and the well with the biofilm washed carefully for one time with 200 μL 0.9% saline solution. 200 μL saline solution was added and the biofilm was resuspended thoroughly. When fully homogenized then 20 μl, was used for the first dilution in 180 μL 0.9% saline solution, which was prepared in a second plate. This dilution was continued until dilution step 10E-5 and 100 μL of the 10E-4 and 10E-5 dilution plated on a TSA plate. The TSA plates were incubated at 37° C. for 24 h. The colonies on the plates were enumerated, the colony forming units per ml, of the dispensed biofilm and averages thereof and the log reduction in comparison with the untreated sample from the same wells plate calculated. Reduction of colony forming units goes hand in hand with the thickness of the biofilm and thus with the number bacteria that are present in the biofilm. Therefore, a significant reduction of colony forming units in the biofilm was defined at the value of log reduction >1 or more. This assay was repeated two times in two independent experiments)

The test system of test [3] is Staphylococcus epidermis ATCC 35984 biofilm. The experiment in a line: MBEC assay (48 h biofilm, CFU log reduction). It counts as cell-based, Staphylococcus epidermidis. Conditions: 20 h treatment, 0.125-1 mM tested. The protocol:
as §1, §2

Test [4] has as its system Staphylococcus epidermidis ATCC 35984. The experiment in a line: MIC assay (growth inhibition of planktonic microorganisms). It counts as cell-based. Conditions: 24 h at 37° C., MHB-II. As for the experimental part:
(§3) The exact weighed amount was noted and the volume of solvent to reach a 80 mM dilution calculated. Half of the volume was added first, by adding Tween 80 and let stand for 5 minutes. In a second step, the other half of the volume DMSO was added and resuspended to help the dilution process. The closed tube was inverted 5-10 times and then vortexed very thoroughly for at least 30 seconds. If after this procedure crystals were still visible, the tube was placed in a shaker at 37° C. at 150 rpm for at least 30 minutes (it is indicated if the dissolution period was longer than 2 h). […] In case of Bis(4-Chlorophenyl) thiosulfonate, a lower concentrated stock solution of 2 mM needed to be prepared. For that, the required amount of compound was weighed in and 2% v/v Tween80 and 2% v/v DMSO of the end volume of the stock solution was added to the substance. This mix was heated in a water bath set to 40° C. and occasionally shaken. When the whole amount of the substance reached dissolution, the volume was filled up with growth medium until the end volume. This 2 mM stock solution of Bis(4-Chlorophenyl) thiosulfonate was used in the MIC plate and diluted two-fold, resulting in a testing range of Bis(4-Chlorophenyl) thiosulfonate from 1 mM to 0.002 mM.
(§4) The microorganisms as indicated in Table 4 were used to inoculate a tryptic soy agar (TSA) plate and incubated overnight at 37° C. After incubation 3-5 well-isolated colonies with the same morphology were selected from the TSA plate and resuspended in 2 mL 0.9% saline solution with 3-6 glass beads and vortexed. The optical density at 600 nm (OD600) of the bacterial suspension was measured with a spectrophotometer (Evolution™ 201/220 UV-Visible Spectrophotometer, Thermo Fisher Scientific) and diluted to an OD600 of 0.0008, which resembles 10^6 CFU/mL.
(§5) The MIC assay was performed in a flat-bottom 96-microtiter plate. 50 μL of MHB-II was added into columns 2-11, and 100 μL to column 12 for sterility control. 100 μL of the 8 mM test compound solution (method 1) was added to column 1. A two-fold dilution series of the solution in MHB-II was achieved by resuspending 50 μL of the 8 mM solution from column 1 to column 2. This step was repeated until column 10. The respective concentration of Tween 80 and DMSO in column 1 was 2.5%, which is two-fold diluted throughout the plate. 50 μL of the bacterial suspension was added to column 1-11. The microtiter plates were sealed with adhesive polyethylene film for sealing microplates (Diversified Biotech) and incubated for 24 h at 37° C. After incubation the OD was measured at 600 nm with the Varioskan (Thermo Fisher Scientific). The minimal concentration which causes reduction of final OD600 of the bacterial culture by 50% (MIC50) and by 90% (MIC90) was calculated after normalization of the obtained OD values to the growth control in column 11. This assay was repeated three times in three independent experiments.

Test [5] relates to Pseudomonas aeruginosa ATCC 27853. The description is as above. Conditions: 24 h at 37° C., MHB-II. It is filed as cell-based. The protocol:
as §3, §4, §5
Hereafter, the stock solutions of the compounds were used in three repetitions in a minimal inhibitory concentration (MIC) assay at a 2-fold dilution range with various bacteria from the gram-positive and gram-negative group and a yeast, Candida albicans. The concentrations that show only less than 10% growth after 24 h were considered the MIC90-values, whereas the concentrations that show 50% growth after 24 h when compared to the bacterial growth control were considered the MIC50-values. Escherichia coli and Staphylococcus aureus were used as representatives for a gram-negative bacteria and gram-positive bacteria, respectively. Furthermore, the yeast C. albicans was also tested.
In an Eppendorf tube between 10-20 mg of the test compound was weighed. Hereafter, the required amount of Tween 80 was added, followed by the amount DMSO. After vigorous shaking, the dissolved and transparent dilutions were diluted 10 times with Mueller Hinton Broth (MHB) for the MIC assay. […]

The mark [6] stands for this setting: reduction of final OD600 by 50%.
Setting [7] is: reduction of final OD600 by 90%.

On to `CO[C@H]1/C=C/O[C@@]2(C)Oc3c(C)c(O)c4c(O)c(c(/C=N/N5CCN(C)CC5)c(O)c4c3C2=O)NC(=O)/C(C)=C\C=C\[C@H](C)[C@H](O)[C@@H](C)[C@@H](O)[C@@H](C)[C@H](OC(C)=O)[C@@H]1C` [rifampicin, reference compound], for which the “fold-increase in MIC compared to the MIC at the start” value is listed as 146 fold in test [1] (after passage 10), > 292 fold in test [1] (after the last passage) and 10 fold in test [1] (at passages 4-5).

Take `CC(C)SSC(C)C` [Di-isopropyl disulfide, reference compound]: in test [2], the “P. aeruginosa MBEC mM with log reduction ≥1” value is reported as >1 mM. Further, the “S. epidermidis MBEC mM with log reduction ≥1” value in test [3] is >1 mM. The MIC50 in test [4] (Staphylococcus epidermidis, ATCC35984, reduction of final OD600 by 50%, read-out: S. epidermidis MIC50) is > 4000 µM; in test [5] (Pseudomonas aeruginosa, ATCC27853, 24 h, reduction of final OD600 by 50%, read-out: P. aeruginosa MIC50), > 4000 µM. Further, the MIC90 in test [4] (Staphylococcus epidermidis, ATCC35984, reduction of final OD600 by 90%, read-out: S. epidermidis MIC90) is > 4000 µM; in test [5] (Pseudomonas aeruginosa, ATCC27853, reduction of final OD600 by 90%, read-out: P. aeruginosa MIC90) it was > 4000 µM.

As for `[O-][S+](Sc1ccc(Cl)cc1)c1ccc(Cl)cc1` (stereo not drawn) [Bis (4-chlorophenyl) thiosulfinate, Bis(4-chlorophenyl) thiosulfinate], the “P. aeruginosa MBEC mM with log reduction ≥1” value in test [2] was >1 mM. The “S. epidermidis MBEC mM with log reduction ≥1” value in test [3] is >1 mM. The “S. epidermidis MIC50” value in test [4] (setting [6]) was 20 µM. For the same molecule, the “S. epidermidis MIC90” value in test [4] (setting [7]) turned out to be 20 µM. Further, the “P. aeruginosa MIC50” value in test [5] (setting [6]) came to 20 µM. In addition, the “P. aeruginosa MIC90” value in test [5] (setting [7]) came out at 20 µM.
